Test results from US10206394B2, “Herbicidal compounds” (Syngenta Participations AG, priority 2014, dated 2019).
Like-named read-outs stand apart in the source and are kept apart here.

How the values were obtained:
Experiment in all cases: Glasshouse assay for herbicidal activity (pre- and post-emergence), percentage phytotoxicity
Type in all cases: in vivo
[1] = test system: Alopecurus myosuroides (ALOMY); conditions: Alopecurus myosuroides
In short: (§1)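 Seeds were sown in standard soil in pots and grown one day (pre-emergence) or about 12 days (post-emergence) before herbicide application. Plants were kept at 24/18 °C (warm-climate) or 20/16 °C (cool-climate) day/night, 16 h light, 65% humidity, watered twice daily, and damage was scored visually at 15 DAA (POST) or 20 DAA (PRE).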

[2] = test system: Avena fatua (AVEFA); conditions: Avena fatua
In short: as §1

[3] = test system: Echinochloa crus-galli (ECHCG); conditions: Echinochloa crus-galli
In short: as §1

[4] = test system: Lolium perenne (LOLPE); conditions: Lolium perenne
In short: as §1

[5] = post-emergence, 360 h, 250 g/ha, post-emergence, 15 DAA, visual assessment (100%=total damage, 0%=no damage), read-out: Post-emergence herbicidal activity (percentage phytotoxicity) ALOMY POST
[6] = pre-emergence, 480 h, 250 g/ha, pre-emergence, 20 DAA, visual assessment (100%=total damage, 0%=no damage), read-out: Pre-emergence herbicidal activity (percentage phytotoxicity) ALOMY PRE
[7] = post-emergence, 360 h, 250 g/ha, post-emergence, 15 DAA, visual assessment (100%=total damage, 0%=no damage), read-out: Post-emergence herbicidal activity (percentage phytotoxicity) AVEFA POST
[8] = pre-emergence, 480 h, 250 g/ha, pre-emergence, 20 DAA, visual assessment (100%=total damage, 0%=no damage), read-out: Pre-emergence herbicidal activity (percentage phytotoxicity) AVEFA PRE
[9] = post-emergence, 360 h, 250 g/ha, post-emergence, 15 DAA, visual assessment (100%=total damage, 0%=no damage), read-out: Post-emergence herbicidal activity (percentage phytotoxicity) ECHCG POST
[10] = pre-emergence, 480 h, 250 g/ha, pre-emergence, 20 DAA, visual assessment (100%=total damage, 0%=no damage), read-out: Pre-emergence herbicidal activity (percentage phytotoxicity) ECHCG PRE
[11] = post-emergence, 360 h, 250 g/ha, post-emergence, 15 DAA, visual assessment (100%=total damage, 0%=no damage), read-out: Post-emergence herbicidal activity (percentage phytotoxicity) LOLPE POST
[12] = pre-emergence, 480 h, 250 g/ha, pre-emergence, 20 DAA, visual assessment (100%=total damage, 0%=no damage), read-out: Pre-emergence herbicidal activity (percentage phytotoxicity) LOLPE PRE
[13] = post-emergence, 360 h, Rate 250 g/ha, post-emergence, visual assessment 15 DAA, 100%=total damage, 0%=no damage, read-out: Post-emergence herbicidal activity (percentage phytotoxicity) ALOMY POST
[14] = pre-emergence, 480 h, Rate 250 g/ha, pre-emergence, visual assessment 20 DAA, 100%=total damage, 0%=no damage, read-out: Pre-emergence herbicidal activity (percentage phytotoxicity) ALOMY PRE
[15] = post-emergence, 360 h, Rate 250 g/ha, post-emergence, visual assessment 15 DAA, 100%=total damage, 0%=no damage, read-out: Post-emergence herbicidal activity (percentage phytotoxicity) AVEFA POST
[16] = pre-emergence, 480 h, Rate 250 g/ha, pre-emergence, visual assessment 20 DAA, 100%=total damage, 0%=no damage, read-out: Pre-emergence herbicidal activity (percentage phytotoxicity) AVEFA PRE
[17] = post-emergence, 360 h, Rate 250 g/ha, post-emergence, visual assessment 15 DAA, 100%=total damage, 0%=no damage, read-out: Post-emergence herbicidal activity (percentage phytotoxicity) ECHCG POST
[18] = pre-emergence, 480 h, Rate 250 g/ha, pre-emergence, visual assessment 20 DAA, 100%=total damage, 0%=no damage, read-out: Pre-emergence herbicidal activity (percentage phytotoxicity) ECHCG PRE
[19] = post-emergence, 360 h, Rate 250 g/ha, post-emergence, visual assessment 15 DAA, 100%=total damage, 0%=no damage, read-out: Post-emergence herbicidal activity (percentage phytotoxicity) LOLPE POST
[20] = pre-emergence, 480 h, Rate 250 g/ha, pre-emergence, visual assessment 20 DAA, 100%=total damage, 0%=no damage, read-out: Pre-emergence herbicidal activity (percentage phytotoxicity) LOLPE PRE

Work on `C=C(C)CNC(=O)CC1CC(=O)C(c2c(C)cc(C)cc2C)C1=O` (stereo not drawn) [Compound B44] yielded a pest or weed control at 250 g/ha [1, 5] of 90%, a pest or weed control at 250 g/ha [1, 6] of 90% and a pest or weed control at 250 g/ha [2, 7] of 90%. It also gave a pest or weed control at 250 g/ha [2, 8] of 60%, a pest or weed control at 250 g/ha [3, 9] of 90% and a pest or weed control at 250 g/ha [3, 10] of 90%. The pest or weed control at 250 g/ha [4, 11] was 90% and the pest or weed control at 250 g/ha [4, 12] was 100%.

`Cc1cc(-c2ncc(Cl)cn2)cc(C)c1C1=C(OC(=O)N2CCCC2)CC(CC(=O)NC(C)(C)C)C1=O` (stereo not drawn) [Compound P8] was tested, and the pest or weed control at 250 g/ha [1, 13] was 70%, the pest or weed control at 250 g/ha [1, 14] was 30% and the pest or weed control at 250 g/ha [2, 15] was 80%. The pest or weed control at 250 g/ha [2, 16] was 10%, the pest or weed control at 250 g/ha [3, 17] was 90% and the pest or weed control at 250 g/ha [3, 18] was 70%. It also gave a pest or weed control at 250 g/ha [4, 19] of 70% and a pest or weed control at 250 g/ha [4, 20] of 50%.

Work on `Cc1cc(-c2ncc(F)cc2F)cc(C)c1C1C(=O)C[C@H](CC(=O)NC(C)(C)C)C1=O` (stereo partly drawn) [Compound B52] yielded a pest or weed control at 250 g/ha [1, 5] of 100%, a pest or weed control at 250 g/ha [1, 6] of 90% and a pest or weed control at 250 g/ha [2, 7] of 90%. The pest or weed control at 250 g/ha [2, 8] was 70%, the pest or weed control at 250 g/ha [3, 9] was 100% and the pest or weed control at 250 g/ha [3, 10] was 90%. For the same compound, the pest or weed control at 250 g/ha [4, 11] was 100% and the pest or weed control at 250 g/ha [4, 12] was 100%.

Compound `Cc1cc(C)c(C2=C(OC(=O)C(C)(C)C)CC(CC(=O)N(C(=O)C(C)(C)C)C3(C)COC3)C2=O)c(C)c1` (stereo not drawn) [Compound P14] has a pest or weed control at 250 g/ha [1, 13] of 80%, a pest or weed control at 250 g/ha [1, 14] of 70% and a pest or weed control at 250 g/ha [2, 15] of 80%. It also gave a pest or weed control at 250 g/ha [2, 16] of 10%, a pest or weed control at 250 g/ha [3, 17] of 70% and a pest or weed control at 250 g/ha [3, 18] of 70%. The pest or weed control at 250 g/ha [4, 19] was 80% and the pest or weed control at 250 g/ha [4, 20] was 70%.

`C=C(C)CNC(=O)CC1CC(=O)C(c2c(C)cc(OCC(F)(F)F)cc2C)C1=O` (stereo not drawn) [Compound B147] showed a pest or weed control at 250 g/ha [1, 5] of 80%, a pest or weed control at 250 g/ha [1, 6] of 90% and a pest or weed control at 250 g/ha [2, 7] of 90%. For the same compound, the pest or weed control at 250 g/ha [2, 8] was 50%, the pest or weed control at 250 g/ha [3, 9] was 90% and the pest or weed control at 250 g/ha [3, 10] was 100%. The pest or weed control at 250 g/ha [4, 11] was 60% and the pest or weed control at 250 g/ha [4, 12] was 90%.

`Cc1cc(-c2ccc(Cl)cn2)cc(C)c1C1C(=O)CC(CC(=O)N(C)Cc2cccc(F)c2)C1=O` (stereo not drawn) [Compound B358] gave a pest or weed control at 250 g/ha [1, 13] of 100%, a pest or weed control at 250 g/ha [1, 14] of 90% and a pest or weed control at 250 g/ha [2, 15] of 100%. It also gave a pest or weed control at 250 g/ha [2, 16] of 100%, a pest or weed control at 250 g/ha [3, 17] of 100% and a pest or weed control at 250 g/ha [3, 18] of 100%. It also gave a pest or weed control at 250 g/ha [4, 19] of 90% and a pest or weed control at 250 g/ha [4, 20] of 90%.
